In patent US10463753B2, “Radiolabeled monoacylglycerol lipase occupancy probe” (LUNDBECK LA JOLLA RESEARCH CENTER, INC., priority 2016, dated 2019):

How the values were obtained:
[1] = In vitro plasma protein binding by ultrafiltration; type: in vitro ADME; conditions: rhesus monkey, read-out: Plasma free fraction (not protein bound)
[2] = Whole-body biodistribution and radiation dosimetry by PET imaging; type: in vivo, rhesus monkey
Experimental: The average PET image over the total acquisition duration (˜240 min) of a female rhesus is shown in FIG. 6 (abbreviations: CT=computerized tomography; gb=gallbladder; HU=Hounsfield units; PET=positron emission tomography; SUV=standardized uptake value; ub=urinary bladder; VOI=volume of interest) at three different levels through the body. […] The volumes of interest (VOIs) drawn over the organs identified as sources for the radiation dosimetry calculation can be seen on both average PET and its associated computed tomography (CT) image. […] Selected organs are labeled in the figure. The non-decay corrected (used for the dosimetry calculation) and decay corrected time activity curves of the 11 source organs are shown in FIG. 8 for both the female and male rhesus monkey. The curve values are expressed as percent of injected activity. The total absorbed doses in various target organs generated by OLINDA|EXM 1.1 software are presented in Table 4 for both adult male and adult female models in units of millisievert per megabecquerel (mSv/MBq) and roentgen equivalent man per millicurie (rem/mCi). Kidneys received the highest radiation dose in both the male and female rhesus. The effective dose equivalent (with ICRP-26 tissue weighting factors) and effective dose (with ICRP-60 tissue weighting factors) calculated for the whole body are also listed in Table 4.

[3] = Phase 0 study: parent fraction in blood/plasma by HPLC; type: in vivo; conditions: human blood
Experimental: (§1) An additional cohort of four healthy volunteers (two male, two female) was recruited for a whole body biodistribution cohort in which they underwent a single Compound 8F PET scan.
(§2) Blood samples were analyzed by HPLC to determine the fraction of intact parent compound at each time point. […] Free fraction of parent compound in plasma (not protein bound) was also measured by ultrafiltration and estimated to be 0.36±0.04% (n=10).

[4] = Free fraction of parent compound in plasma by ultrafiltration; type: in vitro ADME; conditions: human plasma, n=10; read-out: Free fraction of parent compound in plasma (not protein bound)
Experimental: as §2

[5] = Phase 0 whole-body biodistribution and radiation dosimetry by PET; type: in vivo, human
Experimental: as §1
Elimination via the urinary route was very low.
The following organs were identified as source organs: brain, heart, liver, gallbladder, intestines, kidneys, and urinary bladder. […] The average whole body effective dose (ED) was determined to be 2.19E-02±2.83E-04 mSv/MBq (8.10E-02±1.05E-03 rem/mCi) for adult female and 1.85E-02±7.07E-04 mSv/MBq (6.85E-02±2.62E-03 rem/mCi) for adult male, where the critical organ was determined to be the liver. Stated differently, average whole body ED for females=21.9 μSv/MBq, and for males=18.5 μSv/MBq (average for male and female=20.2 μSv/MBq).

[6] = arterial plasma
[7] = whole-body biodistribution cohort

O=C(OC(C(F)(F)F)C(F)(F)F)N1CCN(Cc2ccc(Cl)cc2N2CCN(CC[18F])CC2)CC1 [Compound 8F, [^18F]1,1,1,3,3,3-hexafluoropropan-2-yl 4-(4-chloro-2-(4-(2-fluoroethyl)piperazin-1-yl)benzyl)piperazine-1-carboxylate]
fraction unbound ([1]; first study): 0.047 ± 0.006 | fraction unbound ([1]; second study): 0.008 ± 0.0004 | Organ receiving the highest radiation dose ([2]; both male and female rhesus): Kidneys | Organs with the highest uptake ([2]; i.v. bolus, whole-body PET): liver, heart wall, lungs, kidney and brain | Stability in blood ex vivo [3]: stable | fraction unbound [4]: 0.0036 ± 0.0004 | Average whole body ED ([5]; average for male and female): 20.2 μSv/MBq | Average whole body ED ([5]; females): 21.9 μSv/MBq | Average whole body ED ([5]; males): 18.5 μSv/MBq | Elimination via the urinary route [5, 7]: very low | Maximum injected dose (ID) in the intestine [5, 7]: 6-7 % ID | Maximum injected dose (ID) in the liver [5, 7]: 26-28 % injected dose (ID) | Organ with highest radiation absorbed dose (critical organ) [5, 7]: liver | Route of elimination of the radiotracer [5, 7]: primarily via hepatobiliary route | Plasma level ([6]; by ~10 min post-dose): ≤ 0.01 % of the injected dose | Peak plasma concentration ([6]; single i.v. 2.25-4.99 mCi): ~0.04 % of the injected dose | Time of peak plasma concentration post-dose ([6]; single i.v. dose): ~5 min
